The target of one data set is T1, human GnRH receptors (Homo sapiens, UniProt P30968).
T1 construct: expressed in transfected cells; host or cells: HEK 293
T1 sequence (P30968 1-328): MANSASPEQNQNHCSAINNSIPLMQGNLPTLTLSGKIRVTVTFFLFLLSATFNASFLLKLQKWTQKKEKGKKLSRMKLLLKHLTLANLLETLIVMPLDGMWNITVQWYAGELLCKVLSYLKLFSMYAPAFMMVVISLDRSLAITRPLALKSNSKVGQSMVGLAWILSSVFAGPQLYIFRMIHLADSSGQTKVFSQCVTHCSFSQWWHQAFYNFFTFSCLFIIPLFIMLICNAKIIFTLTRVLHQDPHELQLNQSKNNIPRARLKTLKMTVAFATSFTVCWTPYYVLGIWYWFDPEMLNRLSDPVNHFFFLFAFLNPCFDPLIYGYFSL
The data set can be described thus: Radioligand binding assay: inhibition of binding of 125I-GnRH-A to GnRH receptors (membranes). The following applies: Human GnRH receptor; competition with 125I-GnRH-A; Ki calculated from IC50 (Cheng et al.). An outline of the steps: (§1)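 Membranes from HEK 293 expressing mouse or human receptor, or rat pituitaries, incubated 1 h at RT with ~0.04–0.06 nM ¹²⁵I-[des-Gly¹⁰,D-Ala⁶]GnRH ethylamide and competitor (0.1–10,000 nM) in HEPES pH 7.4 with MgCl2, EDTA, BSA. Filtration onto PEI-soaked GF/C filters, scintillation counting; Ki from IC50 by Cheng–Prusoff.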

Data set [1] in a line: In vitro metabolism: disappearance of parent compound in liver microsomes. The data set is classed as in vitro ADME. The following applies: human liver microsomes; 5 uM compound, 0.5 mg/ml microsomal protein, 2 mM NADPH, 30 minutes at 37° C. Here is the method: (§2) Human, rat, dog, and monkey liver microsomes are isolated by differential centrifugation. Specimens of human liver were obtained from the International Institute for the Advancement of Medicine (Scranton, Pa.). The disappearance of the parent compound is studied in a mixture containing 5 uM compound, 0.5 mg/ml microsomal protein, and 2 mM NADPH in 50 mM K Phosphate buffer, pH 7.4. Samples are incubated for 30 minutes at 37° C. The reaction is terminated by the addition of acetonitrile and compounds analyzed by LC-MS as described above.
In general terms: Microsomes from liver hold many membrane-bound enzymes, among them those of drug oxidation.

Data set [2] can be described thus: In vitro metabolism: disappearance of parent compound in liver microsomes (male rat). The data set is classed as in vitro ADME. The conditions noted are these: 5 uM compound, 0.5 mg/ml microsomal protein, 2 mM NADPH, 30 minutes at 37° C. Here is the method:
as §2

Data set [3] can be described thus: Pharmacokinetics in female rats. In kind it is in vivo, rat. The following applies: for Tmax: rat, plasma, po, dose and vehicle per footnote, read-out: FR Tmax hr. Here is the method: Rats (male or female, 200-225 g) are prepared with indwelling jugular vein cannula as described by Harms et al., Applied Physiol. 36:391-398 (1974), and allowed to recover overnight with free access to the standard vivarium chow and water. […] […] The blood samples are withdrawn at specific times, plasma is immediately separated and compound extracted with ethyl acetate. The samples are analyzed by LC-MS using 30-90% gradient of ACN in 50 mM ammonium acetate.
The pharmacokinetic parameters are calculated using WinNonlin software (Scientific Consulting Inc.). The bioavailability is calculated as AUCp.o./AUCi.v., where AUCp.o. and AUCi.v. are areas under the plasma concentration-time curve after oral and i.v. administration, respectively.

For the next data set, the target named is T2, mouse GnRH receptors (Mus musculus, UniProt Q01776).
T2 construct: expressed in transfected cells; host or cells: HEK 293
T2 sequence (Q01776 1-327): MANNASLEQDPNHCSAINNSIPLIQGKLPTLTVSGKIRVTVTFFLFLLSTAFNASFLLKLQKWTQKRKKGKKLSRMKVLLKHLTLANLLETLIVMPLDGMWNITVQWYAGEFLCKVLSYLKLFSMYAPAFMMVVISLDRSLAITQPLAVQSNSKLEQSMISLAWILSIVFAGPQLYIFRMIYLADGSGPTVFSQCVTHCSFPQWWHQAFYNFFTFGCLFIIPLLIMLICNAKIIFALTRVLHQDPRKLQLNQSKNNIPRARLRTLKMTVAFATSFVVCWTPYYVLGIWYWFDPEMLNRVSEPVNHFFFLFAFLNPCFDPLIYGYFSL
Nature of the data set: Radioligand binding assay: inhibition of binding of 125I-GnRH-A to GnRH receptors (membranes). The conditions noted are these: Mouse GnRH receptor; competition with 125I-GnRH-A; Ki calculated from IC50 (Cheng et al.). An outline of the steps: as §1

The next data set concerns the target T3, rat GnRH receptor (Rattus norvegicus, UniProt P30969).
T3 construct: rat pituitaries (Pel Freez Biologicals, Rogers, Ark.) are homogenized in buffer A; tissue Pel Freez Biologicals; host or cells: rat pituitaries
T3 sequence (P30969 1-327): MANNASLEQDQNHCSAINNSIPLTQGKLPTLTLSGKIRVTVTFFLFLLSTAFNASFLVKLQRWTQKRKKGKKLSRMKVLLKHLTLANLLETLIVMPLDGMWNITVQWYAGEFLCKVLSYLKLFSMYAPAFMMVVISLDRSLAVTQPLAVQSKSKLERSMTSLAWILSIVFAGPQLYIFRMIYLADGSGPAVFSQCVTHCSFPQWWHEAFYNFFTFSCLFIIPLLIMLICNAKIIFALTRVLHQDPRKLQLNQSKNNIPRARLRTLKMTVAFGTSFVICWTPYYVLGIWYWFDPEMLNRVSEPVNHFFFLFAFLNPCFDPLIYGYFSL
The data set is described as above. The following applies: competition with 125I-GnRH-A, Ki calculated from IC50 (Cheng et al.). In outline: as §1

Several values for one entry are separate records, joined by “and”; a condition that tells them apart may be missing. Equal values may be shown once.

A word on the Ki: it is the dissociation constant of the complex between target and ligand, obtained from inhibition or displacement. In the case of `CC(=O)c1c(NNC(=O)c2ccc(Cc3cc4c(cc3C)C(C)(C)OC4(C)C)o2)nc2c(c(C)nn2C)c1C` [Example E2, N-(5-acetyl-1,3,4-trimethyl-1H-pyrazolo[3,4-b]pyridin-6yl)-5-[(1,1,3,3,6-pentamethyl-1,3-dihydro-2-benzofuran-5-yl)methyl]-2-furohydrazide], the inhibition constant (Ki) at human GnRH receptors was 300 nM. For the same molecule, in data set [1], the “Huma % p. 30′” value came out at 30%.

As usually defined, the Tmax is the time at which the peak concentration occurs. With `COc1cc(C)c(Cl)c(C)c1Cc1ccc(C(=O)NNc2cc(C)c3c(C)nn(C)c3n2)o1` [Example J1], the inhibitory constant (Ki) at human GnRH receptors was 450 nM. For the same molecule, the “Male t % p. 30′” value in data set [2] was 99% and 95%. Also, the Tmax in data set [3] came to 60 min.

Regarding `COc1c(Oc2ccc(C(=O)NNc3cc(C)c4c(C)nn(C)c4n3)o2)c(C)cc2c1C(C)(C)CCC2(C)C` [Example I28, 5-(1-Methoxy-3,5,5,8,8-pentamethyl-5,6,7,8-tetrahydro-naphthalen-2-yloxy)-furan-2-carboxylic acid N′-(1,3,4-trimethyl-1H-pyrazolo[3,4-b]pyridin-6-yl)-hydrazide], the Ki is 2.6 nM at mouse GnRH receptors, 0.3 nM at human GnRH receptors and 4.2 nM on rat GnRH receptor.

As for `Cc1cc2c(cc1Oc1ccc(C(=O)NNc3cc(C)c4c(C)nn(C)c4n3)o1)C(C)(C)CC2` [Example I7, 5-(3,3,6-Trimethyl-indan-5-yloxy)-furan-2-carboxylic acid N′-(1,3,4-trimethyl-1H-pyrazolo[3,4-b]pyridin-6-yl)-hydrazide], the inhibition constant (Ki) at mouse GnRH receptors was 11 nM; on human GnRH receptors it was 2.8 nM; at rat GnRH receptor, 17 nM.

Turning to `Cc1cc(C)c(Cc2ccc(C(=O)NNc3cc(C)c4c(C)nn(C)c4n3)o2)c(C)c1Br` [Example J2], the Ki at human GnRH receptors was 550 nM. Besides, in data set [3] (10 mg/kg as 5 mg/ml solution in 10% cremophor 90% saline, AUCp.o./AUCi.v.), the “FR Fp.o.” value is on record as 6%^3. Moreover, the Tmax in data set [3] came to 30 min.

On to `COc1c(C(C)C)cc(Cl)c(C)c1Cc1ccc(C(=O)NNc2cc(C)c3c(C)nn(C)c3n2)o1` [Example J24, 5-(3-chloro-5-isopropyl-6-methoxy-2-methylbenzyl)-N′-(1,3,4-trimethyl-1H-pyrazolo[3,4-b]pyridin-6-yl)-2-furohydrazide], for which the figures for the Ki on mouse GnRH receptors, at human GnRH receptors and at rat GnRH receptor were 400 nM, 130 nM and 1130 nM, respectively.

For the molecule `COc1cc2c(cc1Oc1ccc(C(=O)NNc3cc(C)c4c(C)nn(C)c4n3)o1)C(C)(C)CC2=O` [Example I5, 5-[(6-Methoxy-3,3-dimethyl-1-oxo-2,3-dihydro-1H-inden-5-yl)oxy]-N′-(1,3,4-trimethyl-1H-pyrazolo[3,4-b]pyridin-6-yl)-2-furohydrazide], the Ki at human GnRH receptors was 1210 nM. For the same molecule, the “Huma % p. 30′” value in data set [1] is on record as 58%.

As for `Cc1ccc(C(C)(C)C)cc1Cc1ccc(C(=O)NNc2ccc3ccccc3n2)o1` [Example B3, 5-[5-(tert-butyl)-2-methylbenzyl]-N′-(2-quinolinyl)-2-furohydrazide], the figures for the Ki on mouse GnRH receptors, at human GnRH receptors and on rat GnRH receptor were 84 nM, 95 nM and 65 nM, respectively.

`COc1c(Oc2ccc(C(=O)NNc3cc(C)c4c(C)nn(C)c4n3)o2)c(C)cc2c1C(C)(C)CCC2` [Example I10, 5-(1-Methoxy-3,8,8-trimethyl-5,6,7,8-tetrahydro-naphthalen-2-yloxy)-furan-2-carboxylic acid N′-(1,3,4-trimethyl-1H-pyrazolo[3,4-b]pyridin-6-yl)-hydrazide]: the inhibition constant Ki was 160 nM at mouse GnRH receptors, 146 nM at human GnRH receptors and 230 nM at rat GnRH receptor.

With `Cc1cc2c(cc1Cc1ccc(C(=O)NNc3ccc4ccccc4n3)o1)C(C)(C)CCC2(C)C` [Example C5, 5-[(3,5,5,8,8-Pentamethyl-5,6,7,8-tetrahydro-2-naphthalenyl)methyl]-N′-(2-quinolinyl]-2-furohydrazide], the Ki was 10 nM at mouse GnRH receptors, 25 nM on human GnRH receptors and 12 nM at rat GnRH receptor. The “Huma % p. 30′” value in data set [1] was 52%.

On to `Cc1cc(Cl)c(C(C)C)cc1Oc1ccc(C(=O)NNc2cc(C)c3c(C)nn(C)c3n2)o1` [Example I23, 5-(4-Chloro-5-isopropyl-2-methyl-phenoxy)-furan-2-carboxylic acid N′-(1,3,4-trimethyl-1H-pyrazolo[3,4-b]pyridin-6-yl)-hydrazide], for which the values for the inhibitory constant (Ki) at mouse GnRH receptors, on human GnRH receptors and at rat GnRH receptor were 22 nM, 30 nM and 370 nM, respectively.

Regarding `Cc1ccc(C(C)(C)C)cc1Oc1ccc(C(=O)NNc2cc(C)c3c(C)nn(C)c3n2)o1` [Example I19, 5-(5-tert-Butyl-2-methyl-phenoxy)-furan-2-carboxylic acid N′-(1,3,4-trimethyl-1H-pyrazolo[3,4-b]pyridin-6-yl)-hydrazide], the inhibitory constant (Ki) at mouse GnRH receptors is 44 nM; on human GnRH receptors it was 17 nM; on rat GnRH receptor it was 39 nM.

`Cc1cc2c(cc1Oc1oc(C(=O)NNc3cc(C)c4c(C)nn(C)c4n3)cc1Br)C(C)(C)CCC2(C)C` [Example F3, 4-Bromo-5-[(3,5,5,8,8-pentamethyl-5,6,7,8-tetrahydro-2-naphthalenyl)oxy]-N′-[1,3,4-trimethyl-1H-pyrazolo[3,4-b]pyridin-6-yl)-2-furohydrazide]: the Ki on mouse GnRH receptors is 136 nM; on human GnRH receptors, 80 nM; at rat GnRH receptor, 535 nM.

`Cc1cc2c(c(Br)c1Oc1ccc(C(=O)NNc3cc(C)c4c(C)nn(C)c4n3)o1)C(C)(C)CCC2(C)C` [Example I8, 5-(1-Bromo-3,5,5,8,8-pentamethyl-5,6,7,8-tetrahydro-naphthalen-2-yloxy)-furan-2-carboxylic acid N′-(1,3,4-trimethyl-1H-pyrazolo[3,4-b]pyridin-6-yl)-hydrazide]: the Ki at mouse GnRH receptors is 16 nM; on human GnRH receptors, 6.3 nM; on rat GnRH receptor it was 29 nM.

As to `Cc1cc(C)c(-c2ccccc2)cc1Cc1ccc(C(=O)NNc2cc(C)c3c(C)nn(C)c3n2)o1` [Example J18, 5-[(4,6-dimethyl[1,1′-biphenyl]-3-yl)methyl]-N′-(1,3,4-trimethyl-1H-pyrazolo[3,4-b]pyridin-6-yl)-2-furohydrazide], the values for the Ki on mouse GnRH receptors, on human GnRH receptors and on rat GnRH receptor were 480 nM, 170 nM and 290 nM, respectively.

For `Cc1cc(Cl)c(C(C)C)c(Oc2ccc(C(=O)NNc3cc(C)c4c(C)nn(C)c4n3)o2)c1` [Example I3, 5-(3-Chloro-2-isopropyl-5-methylphenoxy)-N′-(1,3,4-trimethyl-1H-pyrazolo[3,40b]pyridin-6-yl)-2-furohydrazide], on human GnRH receptors, the Ki was 5770 nM. In data set [1], the “Huma % p. 30′” value is 43%.
